Data taken from the supplement of paper PMC11061612.

Assays:
[1] = compound: COc1cccc2c1C(=O)c1c(O)c3c(c(O)c1C2=O)C[C@@](O)(C(=O)CO)C[C@@H]3O[C@H]1C[C@H](N)[C@H](O)[C@H](C)O1 [Doxorubicin]; details: max 1 µM
Outline: (§1)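 Cancer cell lines were seeded into 1536-well plates in 7.5 μl medium (DMEM/F12 or RPMI, 10% FBS), held 24 hours at 37°C and 5% CO2, and dosed for 72 hours with final DMSO typically 0.2%. Luminescence from CellTiter-Glo 2.0, scaled between blank-well and DMSO-well means, served as viability. The single-agent IC50 was obtained from dose-response fits with a non-linear mixed effects model, each fit being a two-parameter logistic curve.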

[2] = compound: C1CN(CCC1(C(=O)N[C@@H](CCO)C2=CC=C(C=C2)Cl)N)C3=NC=NC4=C3C=CN4 [AZD5363]; details: max 10 µM
Outline: as §1

[3] = compound: CS(=O)(=O)CCNCc1ccc(-c2ccc3ncnc(Nc4ccc(OCc5cccc(F)c5)c(Cl)c4)c3c2)o1 [Lapatinib]; details: max 10 µM
Outline: as §1

[4] = compound: C=CCn1c(=O)c2cnc(Nc3ccc(N4CCN(C)CC4)cc3)nc2n1-c1cccc(C(C)(C)O)n1 [AZD1775]; details: max 3 µM
Outline: as §1

[5] = compound: CC1=C(C(=CC=C1)Cl)NC(=O)C2=CN=C(S2)NC3=CC(=NC(=N3)C)N4CCN(CC4)CCO [Dasatinib]; details: max 2 µM
Outline: as §1

[6] = compound: COc1cccc(OCCCN)c1-c1cc(Nc2cnc(C#N)cn2)n[nH]1 [Prexasertib]; details: max 1 µM
Outline: as §1

[7] = compound: CC(=O)Nc1cccc(-n2c(=O)n(C3CC3)c(=O)c3c(Nc4ccc(I)cc4F)n(C)c(=O)c(C)c32)c1 [Trametinib]; details: max 1 µM
Outline: as §1

[8] = compound: COc1cc(Nc2ncc3c(n2)-c2ccc(Cl)cc2C(c2c(F)cccc2OC)=NC3)ccc1C(=O)O [Alisertib]; details: max 10 µM
Outline: as §1

[9] = compound: O=C(Nc1ccc2[nH]nc(-c3ccncc3)c2c1)[C@@H]1CCN(CC(=O)N2CCN(c3ccc(-c4ncccn4)cc3)CC2)C1; details: max 5 µM
Outline: as §1

[10] = compound: Cc1cc2ncnn2cc1Nc1ncc2c(n1)n(C1CCOCC1)c(=O)n2C [AZD7648]; details: max 10 µM
Outline: as §1

[11] = compound: CN(CC[C@H](CSC1=CC=CC=C1)NC2=C(C=C(C=C2)S(=O)(=O)NC(=O)C3=CC=C(C=C3)N4CCC(CC4)[C@H](C5=CC=CC=C5C6=CC=C(C=C6)Cl)O)S(=O)(=O)C(F)(F)F)CCO [AZD4320]; details: max 1 µM
Outline: as §1

[12] = compound: C1CC(C1)(C(=O)[O-])C(=O)[O-].N.N.[Pt+2] [Carboplatin]; details: max 10 µM
Outline: as §1

[13] = compound: Cn1cnc2c(F)c(Nc3ccc(Br)cc3Cl)c(C(=O)NOCCO)cc21 [Selumetinib]; details: max 10 µM
Outline: as §1

[14] = compound: CC1=CN2[C@@H](C1)C=NC3=CC(=C(C=C3C2=O)OC)OCCCCCOC4=C(C=C5C(=C4)N=C[C@@H]6CC(=CN6C5=O)C)OC [SG3199]; details: max 0.001 µM
Outline: as §1

[15] = compound: CCc1c2c(nc3ccc(O)cc13)-c1cc3c(c(=O)n1C2)COC(=O)[C@]3(O)CC [SN-38]; details: max 0.3 µM
Outline: as §1

[16] = compound: CC(C)n1c(=O)n(C)c2cnc3cc(F)c(-c4ccc(OCCCN5CCCCC5)nc4)cc3c21 [AZD1390]; details: max 0.3 µM
Outline: as §1

[17] = compound: O=c1[nH]cc(F)c(=O)[nH]1 [5-Fluorouracil]; details: max 20 µM
Outline: as §1

[18] = compound: Cc1nc(-c2cn3c(n2)-c2ccc(-c4cnn(C(C)(C)C(N)=O)c4)cc2OCC3)n(C(C)C)n1 [Taselisib]; details: max 10 µM
Outline: as §1

[19] = compound: COc1cc([C@@H]2c3cc4c(cc3[C@@H](O[C@@H]3O[C@@H]5CO[C@@H](C)O[C@H]5[C@H](O)[C@H]3O)[C@H]3COC(=O)[C@H]23)OCO4)cc(OC)c1O [Etoposide]; details: max 10 µM
Outline: as §1

[20] = compound: O=C(c1cc(Cc2n[nH]c(=O)c3ccccc23)ccc1F)N1CCN(C(=O)C2CC2)CC1 [Olaparib]; details: max 10 µM
Outline: as §1

[21] = compound: C[C@@H](Oc1cc(-c2cnn(C3CCNCC3)c2)cnc1N)c1c(Cl)ccc(F)c1Cl [Crizotinib]; details: max 10 µM
Outline: as §1

[22] = compound: COc1cc2ncnc(Nc3ccc(F)c(Cl)c3)c2cc1OCCCN1CCOCC1 [Gefitinib]; details: max 10 µM
Outline: as §1

[23] = compound: N#Cc1cnc(Nc2cc(NC[C@H]3CNCCO3)c(C(F)(F)F)cn2)cn1 [SRA737]; details: max 10 µM
Outline: as §1

[24] = compound: C[C@@H](Nc1cc(F)cc(F)c1)c1cc(C(=O)N(C)C)cc2c(=O)cc(N3CCOCC3)oc12 [AZD8186]; details: max 10 µM
Outline: as §1

[25] = compound: CC1(C)CCC(CN2CCN(c3ccc(C(=O)NS(=O)(=O)c4ccc(NCC5CCOCC5)c([N+](=O)[O-])c4)c(Oc4cnc5[nH]ccc5c4)c3)CC2)=C(c2ccc(Cl)cc2)C1 [Venetoclax]; details: max 1 µM
Outline: as §1

[26] = compound: CN(C)CCCOc1ccc(-c2ccc3ncc4c(c3c2)n(C2CCOCC2)c(=O)n4C)cn1 [AZD0156]; details: max 3 µM
Outline: as §1

[27] = compound: Nc1ccn([C@@H]2O[C@H](CO)[C@@H](O)C2(F)F)c(=O)n1 [Gemcitabine]; details: max 0.3 µM
Outline: as §1

[28] = compound: C[C@@H]1COCCN1C2=NC(=NC(=C2)C3(CC3)[S@](=N)(=O)C)C4=C5C=CNC5=NC=C4 [AZD6738]; details: max 10 µM
Outline: as §1

[29] = compound: C[C@@H](c1ccc2nccn2c1)n1nnc2ncc(-c3cnn(C)c3)nc21 [Savolitinib]; details: max 1 µM
Outline: as §1

[30] = compound: CC(=O)O[C@H]1C(=O)[C@@]2(C)[C@H]([C@H](OC(=O)c3ccccc3)[C@]3(O)C[C@H](OC(=O)[C@H](O)[C@@H](NC(=O)c4ccccc4)c4ccccc4)C(C)=C1C3(C)C)[C@]1(OC(C)=O)CO[C@@H]1C[C@@H]2O [Paclitaxel]; details: max 3 µM
Outline: as §1

[31] = compound: COc1nnc2ccc(N3CCC(c4ccc(OCCN5CCN(C)C(=O)[C@H]5C)cc4)CC3)nn12 [AZD5153]; details: max 1 µM
Outline: as §1

[32] = compound: NC1(c2ccc(-c3nc4ccn5c(=O)[nH]nc5c4cc3-c3ccccc3)cc2)CCC1 [MK-2206]; details: max 10 µM
Outline: as §1

[33] = compound: CC(=O)c1c(C)c2cnc(Nc3ccc(N4CCNCC4)cn3)nc2n(C2CCCC2)c1=O [Palbociclib]; details: max 10 µM
Outline: as §1

[34] = compound: CCN(CCO)CCCOc1ccc2c(Nc3cc(CC(=O)Nc4cccc(F)c4)[nH]n3)ncnc2c1 [AZD2811]; details: max 1 µM
Outline: as §1

[35] = compound: Cc1c2c(nn1C)CSCc1cc(n(C)n1)CSc1cc(c3ccccc3c1)OCCCc1c(C(=O)O)n(C)c3c-2c(Cl)ccc13 [AZD5991]; details: max 1 µM
Outline: as §1

Cell Line	IC50, cell viability 72 h [1] [nM]	IC50, cell viability 72 h [2] [µM]	IC50, cell viability 72 h [3] [µM]	IC50, cell viability 72 h [4] [nM]	IC50, cell viability 72 h [5] [nM]	IC50, cell viability 72 h [6] [nM]	IC50, cell viability 72 h [7] [nM]	IC50, cell viability 72 h [8] [µM]	IC50, cell viability 72 h [9] [µM]	IC50, cell viability 72 h [10] [µM]	IC50, cell viability 72 h [11] [nM]	IC50, cell viability 72 h [12] [µM]	IC50, cell viability 72 h [13] [µM]	IC50, cell viability 72 h [14] [nM]	IC50, cell viability 72 h [15] [nM]	IC50, cell viability 72 h [16] [nM]	IC50, cell viability 72 h [17] [µM]	IC50, cell viability 72 h [18] [µM]	IC50, cell viability 72 h [19] [µM]	IC50, cell viability 72 h [20] [µM]	IC50, cell viability 72 h [21] [µM]	IC50, cell viability 72 h [22] [µM]	IC50, cell viability 72 h [23] [µM]	IC50, cell viability 72 h [24] [µM]	IC50, cell viability 72 h [25] [nM]	IC50, cell viability 72 h [26] [nM]	IC50, cell viability 72 h [27] [nM]	IC50, cell viability 72 h [28] [µM]	IC50, cell viability 72 h [29] [nM]	IC50, cell viability 72 h [30] [nM]	IC50, cell viability 72 h [31] [nM]	IC50, cell viability 72 h [32] [µM]	IC50, cell viability 72 h [33] [µM]	IC50, cell viability 72 h [34] [nM]	IC50, cell viability 72 h [35] [nM]
HT-1376 (Bladder Carcinoma)	> 1000	> 10	> 10	> 3000	> 2000	> 1000	> 1000	> 10	> 5	> 10	> 1000	> 10	> 10	> 1	> 300	> 300	> 20	> 10	> 10	> 10	> 10	> 10	> 10	> 10	> 1000	> 3000	> 300	> 10	> 1000	> 3000	> 1000	> 10	> 10	> 1000	> 1000
KELLY (Neuroblastoma)	142	> 10	7.36	64.5	> 2000	1.18	> 1000	0.237	> 5	> 10	> 1000	> 10	> 10	> 1	7.25	> 300	12.6	> 10	2.53	> 10	1.98	> 10	0.199	> 10	204	> 3000	3.87	1.53	> 1000	10.8	> 1000	> 10	> 10	333	378
TE-9 (Esophageal Squamous Cell Carcinoma)	> 1000	> 10	> 10	1150	> 2000	548	> 1000	> 10	> 5	> 10	> 1000	> 10	> 10	> 1	> 300	> 300	> 20	> 10	> 10	> 10	> 10	> 10	> 10	> 10	> 1000	> 3000	> 300	> 10	> 1000	68	> 1000	> 10	> 10	> 1000	> 1000
Hs-578-T (Breast Carcinoma)	300	2.37	> 10	394	66.8	12.3	> 1000	3.97	> 5	> 10	> 1000	> 10	> 10	> 1	> 300	> 300	> 20	2.19	> 10	> 10	> 10	> 10	> 10	1.71	> 1000	> 3000	> 300	1.81	> 1000	< 3	156	5.65	> 10	435	> 1000
HOS (Osteosarcoma)	792	> 10	> 10	1030	> 2000	53.6	> 1000	> 10	> 5	> 10	> 1000	> 10	> 10	> 1	29.4	> 300	> 20	> 10	4.34	> 10	> 10	> 10	> 10	> 10	> 1000	> 3000	> 300	8.43	> 1000	97.2	996	> 10	> 10	> 1000	> 1000
